Assay in all cases: Antibacterial activity (MIC), agar dilution
Type in all cases: cell-based
In general terms: In agar dilution the substance is mixed into plates at graded concentrations.

In one experiment the test system is E. coli TK-3*. To be noted: Escherichia coli, 20 h. The source says:
(§1) The amount of bacteria inoculated was 10^4 cells per plate (10^6 cells per ml).
(§2) * Penicillinase-producing bacteria

The next experiment relates to Ps. aeruginosa GN3379*. The note with it: Pseudomonas aeruginosa, Ps. aeruginosa GN3379, penicillinase-producing, 10^6 cells per ml.
Description: as §1, §2

The next experiment deals with Kl. pneumoniae Y-4*. The note with it: Klebsiella pneumoniae, 20 h, Kl. pneumoniae Y-4, penicillinase-producing; 10^6 cells per ml; read-out: MIC.
Description: as §1, §2

For another experiment, the system named is St. aureus F-137*. To be noted: Staphylococcus aureus, 20 h.
Description: as §1, §2

A further experiment concerns E. coli NIHJ JC-2. The note with it: Escherichia coli, NIHJJC2, 20 h.
Description: as §1

Another experiment concerns St. aureus FDA209P. To be noted: Staphylococcus aureus, FDA209P, 20 h.
Description: as §1

The test system of another experiment is Pro. mirabilis T-111. To be noted: Proteus mirabilis, 37° C.
Description: as §1

A further experiment has as its system Pro. vulgaris GN3027. The note with it: Proteus vulgaris, GN3027, 20 h, Pro. vulgaris GN3027; 10^6 cells per ml; 37° C., 20 hours; read-out: MIC.
Description: as §1

Another experiment deals with Pro. morganii T-216. The note with it: Morganella morganii, 37° C.
Description: as §1

Another experiment has as its system Ent. cloacae IID977. The note with it: Enterobacter cloacae, IID977, 20 h.
Description: as §1

The next experiment deals with E. coli TK-111. The note with it: Escherichia coli, TK111, 20 h, E. coli TK-111; 10^6 cells per ml; 37° C., 20 hours; read-out: MIC.
Description: as §1

For another experiment, the system named is Kl. pneumoniae Y-41. To be noted: Klebsiella pneumoniae, Y41, 10^6 cells per ml, 37° C., 20 hours, read-out: MIC.
Description: as §1

The next experiment relates to Kl. pneumoniae Y-50. To be noted: Klebsiella pneumoniae, Y50, 20 h, 10^6 cells per ml, 37° C., read-out: MIC.
Description: as §1

The subject of the next experiment is Ps. aeruginosa IFO3445. To be noted: Pseudomonas aeruginosa.
Description: as §1

For another experiment, the system named is Ps. aeruginosa S-68. To be noted: Pseudomonas aeruginosa.
Description: as §1

A further experiment relates to Ps. aeruginosa GN918**. The note with it: Pseudomonas aeruginosa, 20 h; Ps. aeruginosa GN918, cephalospolinase-producing; 10^6 cells per ml; read-out: MIC.
Description: as §1
(§3) ** Cephalospolinase-producing bacteria

A further experiment has as its system Pro. vulgaris GN76**. To be noted: Proteus vulgaris, 20 h; Pro. vulgaris GN76, cephalospolinase-producing; 10^6 cells per ml; read-out: MIC.
Description: as §1, §3

The subject of another experiment is E. coli GN5482**. To be noted: Escherichia coli, 20 h; E. coli GN5482, cephalospolinase-producing; 10^6 cells per ml; read-out: MIC.
Description: as §1, §3

The next experiment concerns Aci. antitratus A-6. To be noted: 20 h, Aci. antitratus A-6; 10^6 cells per ml; 37° C., 20 hours; read-out: MIC.
Description: as §1

The mark [1] stands for this setting: St. aureus F-137, penicillinase-producing, 10^6 cells per ml, read-out: MIC.
Where [2] appears, read: St. aureus FDA209P, 10^6 cells per ml, 37° C., 20 hours, read-out: MIC.
The mark [3] stands for this setting: E. coli TK-3, penicillinase-producing, 10^6 cells per ml, read-out: MIC.
The mark [4] stands for this setting: E. coli NIHJ JC-2, 10^6 cells per ml, 37° C., 20 hours, read-out: MIC.
[5] abbreviates: T216, 10^6 cells per ml, 20 hours, read-out: MIC.
[6] abbreviates: Ent. cloacae IID977, 10^6 cells per ml, 37° C., 20 hours, read-out: MIC.

≈ marks a conversion by molar mass, not a printed value. Like-named read-outs stand apart in the source and are kept apart here.

Drawing on patent US4698352A, “4-oxo-1,4-dihydronicotinic acid derivatives, salts thereof, and antibacterial agents containing the same” (Toyama Chemical Co., Ltd., priority 1982, dated 1987), this text covers MIC for 4 molecules.

For the molecule `O=C(O)c1cn(-c2ccc(F)cc2)c(-c2cc3ccccc3s2)cc1=O`, the MIC – broadly, the lowest concentration that inhibits growth of the organism – in the experiment with E. coli TK-3* was 3.13 µg/mL (≈ 8.57 µM); against Ps. aeruginosa GN3379* (GN3379, 20 h), 12.5 µg/mL (≈ 34.2 µM); with Kl. pneumoniae Y-4*, 12.5 µg/mL (≈ 34.2 µM); with St. aureus F-137* (setting [1]), 0.39 µg/mL (≈ 1.07 µM); against E. coli NIHJ JC-2, 3.13 µg/mL (≈ 8.57 µM); with St. aureus FDA209P (setting [2]), 0.78 µg/mL (≈ 2.13 µM). Also, the MIC with Pro. mirabilis T-111 (T111, 20 h, 10^6 cells per ml) worked out at 3.13 µg/mL (≈ 8.57 µM); with Pro. vulgaris GN3027, 0.39 µg/mL (≈ 1.07 µM); against Pro. morganii T-216 (T216, 20 h, 10^6 cells per ml), 3.13 µg/mL (≈ 8.57 µM); with Ent. cloacae IID977, 3.13 µg/mL (≈ 8.57 µM); in the experiment on E. coli TK-111 it was 0.78 µg/mL (≈ 2.13 µM); in the experiment on Kl. pneumoniae Y-41 it was 6.25 µg/mL (≈ 17.1 µM). Also, the MIC was found to be 3.13 µg/mL (≈ 8.57 µM) in the experiment on Kl. pneumoniae Y-50; 12.5 µg/mL (≈ 34.2 µM) with Ps. aeruginosa IFO3445 (IFO3445, 20 h); 6.25 µg/mL (≈ 17.1 µM) against Ps. aeruginosa S-68 (S68, 20 h); 1.56 µg/mL (≈ 4.27 µM) in the experiment on Ps. aeruginosa GN918**; 1.56 µg/mL (≈ 4.27 µM) with Pro. vulgaris GN76**; 0.39 µg/mL (≈ 1.07 µM) in the experiment on E. coli GN5482**.
With `CC(=O)Oc1ccc(-n2cc(C(=O)O)c(=O)cc2-c2cc3ccccc3o2)cc1`, the MIC in the experiment with E. coli TK-3* (setting [3]) was 3.13 µg/mL (≈ 8.04 µM); in the experiment with Ps. aeruginosa GN3379* (GN3379, 20 h) it was 6.25 µg/mL (≈ 16.1 µM); with Kl. pneumoniae Y-4*, 12.5 µg/mL (≈ 32.1 µM); in the experiment with St. aureus F-137* (setting [1]), 0.39 µg/mL (≈ 1 µM); in the experiment with E. coli NIHJ JC-2 (setting [4]), 1.56 µg/mL (≈ 4.01 µM); with St. aureus FDA209P (setting [2]) it was 0.39 µg/mL (≈ 1 µM). Moreover, the MIC in the experiment with Pro. mirabilis T-111 (T111, 20 h, 10^6 cells per ml) was 6.25 µg/mL (≈ 16.1 µM); in the experiment with Pro. vulgaris GN3027, 0.39 µg/mL (≈ 1 µM); in the experiment on Pro. morganii T-216 (setting [5]) it was 3.13 µg/mL (≈ 8.04 µM); in the experiment with Ent. cloacae IID977 (setting [6]) it was 3.13 µg/mL (≈ 8.04 µM); in the experiment on E. coli TK-111, 0.78 µg/mL (≈ 2 µM); in the experiment with Kl. pneumoniae Y-41, 6.25 µg/mL (≈ 16.1 µM). Also, the MIC with Kl. pneumoniae Y-50 came out at 0.78 µg/mL (≈ 2 µM); with Ps. aeruginosa IFO3445 (IFO3445, 20 h) it was 6.25 µg/mL (≈ 16.1 µM); in the experiment with Aci. antitratus A-6, 0.78 µg/mL (≈ 2 µM); against Ps. aeruginosa S-68 (S68, 20 h), 6.25 µg/mL (≈ 16.1 µM); with Pro. vulgaris GN76**, 1.56 µg/mL (≈ 4.01 µM); with E. coli GN5482**, 0.2 µg/mL (≈ 0.514 µM).
For `COc1ccc(-c2ccc(-c3cc(=O)c(C(=O)O)cn3-c3ccc(O)cc3)s2)cc1`, the MIC with E. coli TK-3* (setting [3]) was found to be 0.78 µg/mL (≈ 1.86 µM); with Ps. aeruginosa GN3379* (20 h, read-out: MIC), 6.25 µg/mL (≈ 14.9 µM); in the experiment on Kl. pneumoniae Y-4*, 3.13 µg/mL (≈ 7.46 µM); in the experiment with St. aureus F-137* (setting [1]) it was 0.1 µg/mL (≈ 0.238 µM); with E. coli NIHJ JC-2 (setting [4]), 0.39 µg/mL (≈ 0.93 µM); with St. aureus FDA209P (setting [2]), 0.1 µg/mL (≈ 0.238 µM). For the same molecule, the MIC in the experiment on Pro. mirabilis T-111 (T111, 20 h, 10^6 cells per ml) was found to be 1.56 µg/mL (≈ 3.72 µM); with Pro. vulgaris GN3027, 0.2 µg/mL (≈ 0.477 µM); in the experiment with Pro. morganii T-216 (setting [5]) it was 0.78 µg/mL (≈ 1.86 µM); in the experiment with Ent. cloacae IID977 (setting [6]) it was 0.78 µg/mL (≈ 1.86 µM); in the experiment on E. coli TK-111, 0.1 µg/mL (≈ 0.238 µM); with Kl. pneumoniae Y-41, 1.56 µg/mL (≈ 3.72 µM). Moreover, the MIC in the experiment on Kl. pneumoniae Y-50 was 0.78 µg/mL (≈ 1.86 µM); in the experiment on Ps. aeruginosa IFO3445 (IFO3445, 20 h) it was 3.13 µg/mL (≈ 7.46 µM); in the experiment with Aci. antitratus A-6 it was 0.39 µg/mL (≈ 0.93 µM); in the experiment with Ps. aeruginosa S-68 (S68, 20 h), 1.56 µg/mL (≈ 3.72 µM); in the experiment on Pro. vulgaris GN76**, 0.39 µg/mL (≈ 0.93 µM); in the experiment with E. coli GN5482**, not above 0.05 µg/mL.
Turning to `Cc1cc(F)ccc1-n1cc(C(=O)O)c(=O)cc1C1CC=CCC1` (stereo not drawn), the MIC is 12.5 µg/mL (≈ 38.2 µM) with E. coli TK-3* (setting [3]); 100 µg/mL (≈ 305 µM) with Ps. aeruginosa GN3379* (20 h, read-out: MIC); 25 µg/mL (≈ 76.4 µM) in the experiment with Kl. pneumoniae Y-4*; 3.13 µg/mL (≈ 9.56 µM) in the experiment with St. aureus F-137*; 6.25 µg/mL (≈ 19.1 µM) in the experiment with E. coli NIHJ JC-2 (setting [4]); 3.13 µg/mL (≈ 9.56 µM) in the experiment with St. aureus FDA209P. Further, the MIC in the experiment on Pro. mirabilis T-111 (T111, 10^6 cells per ml, 20 hours, read-out: MIC) was found to be 25 µg/mL (≈ 76.4 µM); with Pro. vulgaris GN3027, 0.39 µg/mL (≈ 1.19 µM); in the experiment with Pro. morganii T-216 (setting [5]), 12.5 µg/mL (≈ 38.2 µM); in the experiment on Ent. cloacae IID977 (setting [6]) it was 12.5 µg/mL (≈ 38.2 µM); in the experiment with E. coli TK-111 it was 1.56 µg/mL (≈ 4.77 µM); in the experiment with Kl. pneumoniae Y-41, 25 µg/mL (≈ 76.4 µM). Moreover, the MIC came to 3.13 µg/mL (≈ 9.56 µM) in the experiment on Kl. pneumoniae Y-50; 100 µg/mL (≈ 305 µM) in the experiment on Ps. aeruginosa IFO3445 (Ps. aeruginosa IFO3445, 10^6 cells per ml, 37° C., 20 hours, read-out: MIC); 50 µg/mL (≈ 153 µM) in the experiment with Ps. aeruginosa S-68 (S68, Ps. aeruginosa S-68, 10^6 cells per ml, 37° C., 20 hours, read-out: MIC); 12.5 µg/mL (≈ 38.2 µM) with Ps. aeruginosa GN918**; 6.25 µg/mL (≈ 19.1 µM) in the experiment on Pro. vulgaris GN76**; 0.78 µg/mL (≈ 2.38 µM) in the experiment on E. coli GN5482**.
